From the supplement of paper PMC7645387
± gives the standard deviation of the averaged measurements.

Tests used:
Settings in all cases: treatment time: 6 days
HDFB [1] = experiment: cell viability relative to DMSO control; higher = less growth inhibition
Method: (§1)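 MCC cell lines (PeTa, MKL-1, MS-1, WaGa) and HDFB fibroblasts were treated for 6 days with serial dilutions (1e-11 to 1e-4 M) of single compounds in quadruplicate. Viability was read by CellTiter-Glo 2.0 and expressed as % of DMSO control.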

PeTa [2] = experiment: as above
Method: as §1

MKL-1 [3] = experiment: as above
Method: as §1

HDFB [4] = experiment: growth inhibition relative to DMSO control (fraction); higher = stronger growth inhibition
Method: (§2)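 Drug combination matrices: GSK-LSD1 (0, 1, 10, 100 nM) was combined with a second epigenetic drug (0 to 10 uM) on MCC lines PeTa and MKL-1 and on HDFB fibroblasts for 6 days, in quadruplicate. Viability was read by CellTiter-Glo 2.0. The response is the fraction of growth inhibition relative to DMSO, as input to synergyfinder Bliss analysis.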

PeTa [5] = experiment: as above
Method: as §2

MKL-1 [6] = experiment: as above
Method: as §2

O=C(NC[C@H](O)CN1CCc2ccccc2C1)c1ccnc(NC2CCC2)c1 [GSK591]
cell viability [%]
Settings	log10 concentration (M): -4	log10 concentration (M): -5	log10 concentration (M): -6	log10 concentration (M): -7	log10 concentration (M): -8	log10 concentration (M): -9	log10 concentration (M): -10	log10 concentration (M): -11
HDFB [1]	91.5 ± 3.5	115 ± 7.4	112 ± 5.1	117 ± 5.5	113 ± 3.1	104 ± 2.8	104 ± 2.1	101 ± 2
MKL-1 [3]	37.2 ± 2.9	64.4 ± 12	72.4 ± 13	79.2 ± 16	84.2 ± 21	98.2 ± 17	111 ± 28	101 ± 22
PeTa [2]	26.2 ± 2.9	80.4 ± 3.4	93.2 ± 3.1	103 ± 3.5	107 ± 7.2	108 ± 6.4	106 ± 7.8	100 ± 7.8

c1ccc([C@@H]2C[C@H]2NC2CCNCC2)cc1 [GSK-LSD1] + O=C(NC[C@H](O)CN1CCc2ccccc2C1)c1ccnc(NC2CCC2)c1 [GSK591]
growth inhibition
Settings	partner concentration 0 nM	partner concentration 1 nM	partner concentration 10 nM	partner concentration 100 nM	partner concentration 1000 nM	partner concentration 10000 nM
HDFB [4], GSK-LSD1 concentration 0 nM	–	-0.0108	0.034	0.242	0.285	0.348
HDFB [4], GSK-LSD1 concentration 1 nM	-0.00486	0.0263	0.00718	0.199	0.324	0.372
HDFB [4], GSK-LSD1 concentration 10 nM	0.0391	0.0408	0.0239	0.215	0.342	0.42
HDFB [4], GSK-LSD1 concentration 100 nM	0.0873	0.0906	0.093	0.285	0.355	0.44
MKL-1 [6], GSK-LSD1 concentration 0 nM	–	0.00697	0.0188	0.133	0.269	0.324
MKL-1 [6], GSK-LSD1 concentration 1 nM	0.144	0.148	0.163	0.253	0.423	0.432
MKL-1 [6], GSK-LSD1 concentration 10 nM	0.46	0.501	0.536	0.626	0.773	0.789
MKL-1 [6], GSK-LSD1 concentration 100 nM	0.733	0.769	0.754	0.771	0.894	0.849
PeTa [5], GSK-LSD1 concentration 0 nM	–	-0.0144	-0.0251	0.0642	0.125	0.21
PeTa [5], GSK-LSD1 concentration 1 nM	0.11	0.135	0.102	0.201	0.287	0.302
PeTa [5], GSK-LSD1 concentration 10 nM	0.615	0.624	0.611	0.64	0.731	0.679
PeTa [5], GSK-LSD1 concentration 100 nM	0.761	0.746	0.73	0.779	0.866	0.797

Nc1ccccc1NC(=O)c1ccc(CNC(=O)OCc2cccnc2)cc1 [Entinostat]
cell viability [%]
Settings	log10 concentration (M): -4	log10 concentration (M): -5	log10 concentration (M): -6	log10 concentration (M): -7	log10 concentration (M): -8	log10 concentration (M): -9	log10 concentration (M): -10	log10 concentration (M): -11
HDFB [1]	0.192 ± 0.057	11 ± 1.8	33.8 ± 3.8	94.1 ± 3.7	102 ± 2.1	102 ± 2.9	104 ± 4.2	104 ± 5.3
MKL-1 [3]	0.0104 ± 0.0078	0.0238 ± 0.013	0.0511 ± 0.011	75 ± 2.7	102 ± 2.8	102.6 ± 0.8	101 ± 2.3	102 ± 1.3
PeTa [2]	0.0531 ± 0.016	0.0605 ± 0.051	0.0805 ± 0.058	50.9 ± 3.8	94.9 ± 2.8	98.1 ± 5.3	102 ± 2	108 ± 4.7

Cc1sc2c(c1C)C(c1ccc(Cl)cc1)=N[C@@H](CC(=O)OC(C)(C)C)c1nnc(C)n1-2 [(+)-JQ1]
cell viability [%]
Settings	log10 concentration (M): -4	log10 concentration (M): -5	log10 concentration (M): -6	log10 concentration (M): -7	log10 concentration (M): -8	log10 concentration (M): -9	log10 concentration (M): -10	log10 concentration (M): -11
HDFB [1]	0.0326 ± 0.017	31.7 ± 3.8	52 ± 8.2	78.7 ± 1.5	94.8 ± 1.7	106 ± 11	110 ± 14	99 ± 7.9
MKL-1 [3]	0.00849 ± 0.0057	0.0389 ± 0.0064	0.0944 ± 0.014	20.7 ± 1.3	66.8 ± 11	89.2 ± 19	94.1 ± 1.5	93.9 ± 6.4
PeTa [2]	0.0148 ± 0.0097	3.47 ± 0.2	7.04 ± 0.4	21.7 ± 2.3	94.3 ± 7.1	96.7 ± 12	87.4 ± 18	100 ± 2.9
